Laboratory results reported in ChEMBL document CHEMBL1144419, “N-terminal fatty acylated His-dPhe-Arg-Trp-NH(2) tetrapeptides: influence of fatty acid chain length on potency and selectivity at the mouse melanocortin receptors and human melanocytes” (J Med Chem, 2005).

Key:
Type in all cases: functional
Melanocortin receptor 3 = Melanocortin receptor 3 (Mus musculus, UniProt P33033); assay: In vitro agonist potency for Mouse Melanocortin 3 receptor
Melanocortin receptor 5 = Melanocortin receptor 5 (Mus musculus, UniProt P41149); assay: In vitro agonist potency for Mouse Melanocortin 5 receptor
[1] = molecular target: Melanocyte-stimulating hormone receptor (Mus musculus, UniProt Q01727); assay: In vitro agonist potency for Mouse Melanocortin 1 receptor
Melanocortin receptor 4 = Melanocortin receptor 4 (Mus musculus, UniProt P56450); assay: In vitro agonist potency for Mouse Melanocortin 4 receptor
Sequence of Melanocortin receptor 4 (P56450 whole entry): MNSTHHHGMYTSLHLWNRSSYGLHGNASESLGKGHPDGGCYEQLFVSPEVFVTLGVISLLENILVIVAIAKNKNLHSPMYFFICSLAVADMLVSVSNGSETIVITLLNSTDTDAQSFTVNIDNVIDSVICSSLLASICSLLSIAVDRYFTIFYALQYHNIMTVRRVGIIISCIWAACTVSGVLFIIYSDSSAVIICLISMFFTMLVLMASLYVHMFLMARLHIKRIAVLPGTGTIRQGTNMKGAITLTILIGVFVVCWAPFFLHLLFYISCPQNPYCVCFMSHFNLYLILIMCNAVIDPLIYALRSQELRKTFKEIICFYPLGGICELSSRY

Sequence of Melanocyte-stimulating hormone receptor (Q01727 whole entry): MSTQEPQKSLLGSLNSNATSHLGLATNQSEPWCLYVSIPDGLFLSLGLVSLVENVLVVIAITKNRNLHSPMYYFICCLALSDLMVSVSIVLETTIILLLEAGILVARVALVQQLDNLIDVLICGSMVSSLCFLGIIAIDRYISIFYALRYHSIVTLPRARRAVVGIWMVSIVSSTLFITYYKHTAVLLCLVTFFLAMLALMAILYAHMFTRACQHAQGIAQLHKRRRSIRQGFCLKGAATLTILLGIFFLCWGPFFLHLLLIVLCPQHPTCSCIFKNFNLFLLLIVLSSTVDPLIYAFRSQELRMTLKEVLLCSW
Sequence of Melanocortin receptor 5 (P41149 whole entry): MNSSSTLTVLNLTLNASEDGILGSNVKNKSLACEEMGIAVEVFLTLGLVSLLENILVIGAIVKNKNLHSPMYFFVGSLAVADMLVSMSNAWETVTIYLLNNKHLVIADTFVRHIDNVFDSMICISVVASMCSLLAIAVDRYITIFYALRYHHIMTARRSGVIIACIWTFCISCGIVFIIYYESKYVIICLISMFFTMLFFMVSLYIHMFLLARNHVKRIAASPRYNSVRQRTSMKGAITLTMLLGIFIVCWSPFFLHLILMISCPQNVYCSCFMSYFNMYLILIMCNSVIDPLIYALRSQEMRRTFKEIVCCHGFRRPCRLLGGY
Sequence of Melanocortin receptor 3 (P33033 whole entry): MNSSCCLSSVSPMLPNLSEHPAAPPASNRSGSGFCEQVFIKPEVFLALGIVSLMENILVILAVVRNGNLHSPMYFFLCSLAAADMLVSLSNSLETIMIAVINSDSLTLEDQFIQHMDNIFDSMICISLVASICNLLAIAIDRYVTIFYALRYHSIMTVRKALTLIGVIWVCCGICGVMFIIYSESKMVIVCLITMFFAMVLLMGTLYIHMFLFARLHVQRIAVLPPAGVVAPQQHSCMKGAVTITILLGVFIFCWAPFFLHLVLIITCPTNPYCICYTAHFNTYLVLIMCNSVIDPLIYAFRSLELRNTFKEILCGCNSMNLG

Row | Compound | EC50 (Melanocortin receptor 3) [nM] | EC50 (Melanocortin receptor 5) [nM] | EC50 [1] [nM] | EC50 (Melanocortin receptor 4) [nM]
1 | CCCCCCCC(=O)N[C@@H](Cc1c[nH]cn1)C(=O)N[C@H](Cc1ccccc1)C(=O)N[C@@H](CCCN=C(N)N)C(=O)N[C@@H](Cc1c[nH]c2ccccc12)C(N)=O | 9.29 | 0.57 | 0.33 | 2.52
2 | CCCCCCCCCCCCCC(=O)N[C@@H](Cc1c[nH]cn1)C(=O)N[C@H](Cc1ccccc1)C(=O)N[C@@H](CCCN=C(N)N)C(=O)N[C@@H](Cc1c[nH]c2ccccc12)C(N)=O | 220 | 3.39 | 0.58 | 10.5
3 | CCCCCCCCCC(=O)N[C@@H](Cc1c[nH]cn1)C(=O)N[C@H](Cc1ccccc1)C(=O)N[C@@H](CCCN=C(N)N)C(=O)N[C@@H](Cc1c[nH]c2ccccc12)C(N)=O | 44.8 | 4.83 | 3.34 | 14.4
4 | CCCCCCCCCCCCCCC(=O)N[C@@H](Cc1c[nH]cn1)C(=O)N[C@H](Cc1ccccc1)C(=O)N[C@@H](CCCN=C(N)N)C(=O)N[C@@H](Cc1c[nH]c2ccccc12)C(N)=O | 134 | 3.02 | 2.07 | 13.2
5 | CCCCCCCCCCCCC(=O)N[C@@H](Cc1cnc[nH]1)C(=O)N[C@H](Cc1ccccc1)C(=O)N[C@@H](CCCNC(=N)N)C(=O)N[C@@H](Cc1c[nH]c2ccccc12)C(N)=O | 139 | 4.43 | 0.94 | 20.6
6 | CCCCCCCCCCCCCCCCC(=O)N[C@@H](Cc1c[nH]cn1)C(=O)N[C@H](Cc1ccccc1)C(=O)N[C@@H](CCCN=C(N)N)C(=O)N[C@@H](Cc1c[nH]c2ccccc12)C(N)=O | 266 | 2.82 | 0.72 | 21.4
7 | CCCCCCCCCCCCCCCC(=O)N[C@@H](Cc1cnc[nH]1)C(=O)N[C@H](Cc1ccccc1)C(=O)N[C@@H](CCCNC(=N)N)C(=O)N[C@@H](Cc1c[nH]c2ccccc12)C(N)=O | 154 | 2.99 | 0.99 | 26.6

The remaining lines, values ahead:

Row | EC50 (Melanocortin receptor 3) [nM] | EC50 (Melanocortin receptor 5) [nM] | EC50 [1] [nM] | EC50 (Melanocortin receptor 4) [nM] | Compound
8 | 5.1 | 0.88 | 0.4 | 1.14 | CCCCCCCCC(=O)N[C@@H](Cc1cnc[nH]1)C(=O)N[C@H](Cc1ccccc1)C(=O)N[C@@H](CCCNC(=N)N)C(=O)N[C@@H](Cc1c[nH]c2ccccc12)C(N)=O
9 | – | – | – | 10.7 | CC(=O)N[C@@H](Cc1cnc[nH]1)C(=O)N[C@H](Cc1ccccc1)C(=O)N[C@@H](CCCN=C(N)N)C(=O)N[C@@H](Cc1c[nH]c2ccccc12)C(N)=O
10 | 250 | 2.78 | 67 | 18.5 | N=C(N)NCCC[C@H](NC(=O)[C@@H](Cc1ccccc1)NC(=O)[C@@H](N)Cc1cnc[nH]1)C(=O)N[C@@H](Cc1c[nH]c2ccccc12)C(N)=O
11 | 102 | 10 | 2.8 | 19 | CCCCCCCCCCC(=O)N[C@@H](Cc1cnc[nH]1)C(=O)N[C@H](Cc1ccccc1)C(=O)N[C@@H](CCCNC(=N)N)C(=O)N[C@@H](Cc1c[nH]c2ccccc12)C(N)=O
